# Measurements as given in US7767240B2, “Microbiological control in poultry processing” (priority 2001, dated 2010).
# Columns and labels:
# Experiment in all cases: Bacteria count per bird over 20-day storage (Example 4)
# Type in all cases: cell-based
# Conditions in all cases: pH 8
# [1] = system: Campylobacter jejuni ATCC 29428
# Experimental: (§1) A study was conducted to determine the effect of Clorox® bleach, and 1,3-dibromo-5,5-dimethylhydantoin (DBDMH) on carcass bacteria residual after 1.5 hour in a chill tank solution and spoilage 20-day shelf life longevity (caused by bacteria contamination). Tests were conducted at pH 8 (adjusted by trisodium phosphate). Skin pigmentation (Minolta Color Meter L value or Lightness, a value or redness and b value or yellowness) were determined before and post-processing.
# (§2) In general the study involved normal processing of 56-day-old birds, immersing carcasses first in a warm bath containing 10^4 per mL Escherichia coli, 10^4 per mL Salmonella enteritidis, 10^4 per mL Pseudomonas aeruginosa, 10^4 per mL Campylobacter jejuni, and 10^4 per mL spoilage bacteria each from […] strains (Listeria monocytogenes and Shigella sonnei). Carcass were then immersed in a chill tank “soup”, containing normal organic fluids (blood, fat, skin, and meat particles) and containing various disinfectants (termed test materials).
# (§3) A DBDMH stock solution and test solutions, a bacteria stock solution, and a “chicken soup” were prepared as in Example 3. In addition, the bacterial broth treatments, the whole bird wash sampling procedure, and the methodologies used for quantitative or qualitative determinations for bacterial organisms were conducted as in Example 3.
# (§4) In greater detail the trial events and experimental design used in this group of tests were as follows: • a) Test microorganisms used were: • Escherichia coli ATCC 11229 • Pseudomonas aeruginosa ATCC 15442 • Salmonella enteritidis ATCC 13076 • Shigella sonnei ATCC 9290 • Listeria monocytogenes ATCC 7644 • Campylobacter jejuni ATCC 29428 • b) Test Procedure: All test strains were grown individually at 35° C. for 24 hours in the media specified in Table 12. Cells were harvested by centrifugation at 10,000×g for 10 minutes and washed twice with Butterfield's Phosphate Buffer (BPB of pH 7.2). Cells were resuspended in BPB to obtain a cell suspension of approximately 1.0×10^8 CFU/mL for each microorganism. The target inoculum levels were approximately 10^6 CFU/mL in the final test solutions. In the cases of S. enteritidis and P. aeruginosa the species were washed by pouring into prepared sterile centrifuge tubes with cheesecloth filters. The culture was then pelleted and washed using above techniques and repeated 3 times. • c) The birds (56 days old) were processed under normal commercial conditions. • d) The bacteria were added to a large batch of the “chicken soup”, and then aliquots of the resultant mixture were distributed equally among the chill waters used for each test. Then the particular disinfectant composition under test was added to one of the chill waters. […]
# [2] = system: Escherichia coli ATCC 11229
# Experimental: as §1, §2, §3, §4
# [3] = system: Listeria monocytogenes ATCC 7644
# Experimental: as §1, §2, §3, §4
# [4] = system: Pseudomonas aeruginosa ATCC 15442
# Experimental: as §1, §2, §3, §4
# [5] = system: Shigella sonnei ATCC 9290
# Experimental: as §1, §2, §3, §4
structure (smiles),measurement,setting,value
"CC1(C)C(=O)N(Br)C(=O)N1Br [DBDMH, 1,3-dibromo-5,5-dimethylhydantoin]","average bacteria count per bird, C. jejuni","[1]; Day 0, 10 ppm",519 per bird
same,"average bacteria count per bird, C. jejuni","[1]; Day 0, 20 ppm",17 per bird
same,"average bacteria count per bird, C. jejuni","[1]; Day 2, 10 ppm",573 per bird
same,"average bacteria count per bird, C. jejuni","[1]; Day 2, 20 ppm",25 per bird
same,"average bacteria count per bird, C. jejuni","[1]; Day 4, 10 ppm",627 per bird
same,"average bacteria count per bird, C. jejuni","[1]; Day 4, 20 ppm",39 per bird
same,"average bacteria count per bird, C. jejuni","[1]; Day 6, 10 ppm",671 per bird
same,"average bacteria count per bird, C. jejuni","[1]; Day 6, 20 ppm",78 per bird
same,"average bacteria count per bird, C. jejuni","[1]; Day 8, 10 ppm",834 per bird
same,"average bacteria count per bird, C. jejuni","[1]; Day 8, 20 ppm",157 per bird
same,"average bacteria count per bird, C. jejuni","[1]; Day 10, 10 ppm",1043 per bird
same,"average bacteria count per bird, C. jejuni","[1]; Day 10, 20 ppm",294 per bird
same,"average bacteria count per bird, C. jejuni","[1]; Day 12, 10 ppm",1309 per bird
same,"average bacteria count per bird, C. jejuni","[1]; Day 12, 20 ppm",594 per bird
same,"average bacteria count per bird, C. jejuni","[1]; Day 14, 10 ppm",1551 per bird
same,"average bacteria count per bird, C. jejuni","[1]; Day 14, 20 ppm",1191 per bird
same,"average bacteria count per bird, C. jejuni","[1]; Day 16, 10 ppm",1880 per bird
same,"average bacteria count per bird, C. jejuni","[1]; Day 16, 20 ppm",2259 per bird
same,"average bacteria count per bird, C. jejuni","[1]; Day 18, 10 ppm",2359 per bird
same,"average bacteria count per bird, C. jejuni","[1]; Day 18, 20 ppm",2835 per bird
same,"average bacteria count per bird, C. jejuni","[1]; Day 20, 10 ppm",2789 per bird
same,"average bacteria count per bird, C. jejuni","[1]; Day 20, 20 ppm",3059 per bird
same,"average bacteria count per bird, E. coli","[2]; Day 0, 10 ppm",861 per bird
same,"average bacteria count per bird, E. coli","[2]; Day 0, 20 ppm",22 per bird
same,"average bacteria count per bird, E. coli","[2]; Day 2, 10 ppm",966 per bird
same,"average bacteria count per bird, E. coli","[2]; Day 2, 20 ppm",31 per bird
same,"average bacteria count per bird, E. coli","[2]; Day 4, 10 ppm",1050 per bird
same,"average bacteria count per bird, E. coli","[2]; Day 4, 20 ppm",49 per bird
same,"average bacteria count per bird, E. coli","[2]; Day 6, 10 ppm",1124 per bird
same,"average bacteria count per bird, E. coli","[2]; Day 6, 20 ppm",100 per bird
same,"average bacteria count per bird, E. coli","[2]; Day 8, 10 ppm",1364 per bird
same,"average bacteria count per bird, E. coli","[2]; Day 8, 20 ppm",204 per bird
same,"average bacteria count per bird, E. coli","[2]; Day 10, 10 ppm",1621 per bird
same,"average bacteria count per bird, E. coli","[2]; Day 10, 20 ppm",401 per bird
same,"average bacteria count per bird, E. coli","[2]; Day 12, 10 ppm",2063 per bird
same,"average bacteria count per bird, E. coli","[2]; Day 12, 20 ppm",775 per bird
same,"average bacteria count per bird, E. coli","[2]; Day 14, 10 ppm",2581 per bird
same,"average bacteria count per bird, E. coli","[2]; Day 14, 20 ppm",1453 per bird
same,"average bacteria count per bird, E. coli","[2]; Day 16, 10 ppm",3005 per bird
same,"average bacteria count per bird, E. coli","[2]; Day 16, 20 ppm",2933 per bird
same,"average bacteria count per bird, E. coli","[2]; Day 18, 10 ppm",3617 per bird
same,"average bacteria count per bird, E. coli","[2]; Day 18, 20 ppm",3645 per bird
same,"average bacteria count per bird, E. coli","[2]; Day 20, 10 ppm",4460 per bird
same,"average bacteria count per bird, E. coli","[2]; Day 20, 20 ppm",4036 per bird
same,"average bacteria count per bird, L. monocytogenes","[3]; Day 0, 10 ppm",528 per bird
same,"average bacteria count per bird, L. monocytogenes","[3]; Day 0, 20 ppm",13 per bird
same,"average bacteria count per bird, L. monocytogenes","[3]; Day 2, 10 ppm",601 per bird
same,"average bacteria count per bird, L. monocytogenes","[3]; Day 2, 20 ppm",19 per bird
same,"average bacteria count per bird, L. monocytogenes","[3]; Day 4, 10 ppm",670 per bird
same,"average bacteria count per bird, L. monocytogenes","[3]; Day 4, 20 ppm",28 per bird
same,"average bacteria count per bird, L. monocytogenes","[3]; Day 6, 10 ppm",741 per bird
same,"average bacteria count per bird, L. monocytogenes","[3]; Day 6, 20 ppm",55 per bird
same,"average bacteria count per bird, L. monocytogenes","[3]; Day 8, 10 ppm",880 per bird
same,"average bacteria count per bird, L. monocytogenes","[3]; Day 8, 20 ppm",107 per bird
same,"average bacteria count per bird, L. monocytogenes","[3]; Day 10, 10 ppm",1096 per bird
same,"average bacteria count per bird, L. monocytogenes","[3]; Day 10, 20 ppm",218 per bird
same,"average bacteria count per bird, L. monocytogenes","[3]; Day 12, 10 ppm",1335 per bird
same,"average bacteria count per bird, L. monocytogenes","[3]; Day 12, 20 ppm",442 per bird
same,"average bacteria count per bird, L. monocytogenes","[3]; Day 14, 10 ppm",1564 per bird
same,"average bacteria count per bird, L. monocytogenes","[3]; Day 14, 20 ppm",843 per bird
same,"average bacteria count per bird, L. monocytogenes","[3]; Day 16, 10 ppm",1901 per bird
same,"average bacteria count per bird, L. monocytogenes","[3]; Day 16, 20 ppm",1646 per bird
same,"average bacteria count per bird, L. monocytogenes","[3]; Day 18, 10 ppm",2221 per bird
same,"average bacteria count per bird, L. monocytogenes","[3]; Day 18, 20 ppm",1985 per bird
same,"average bacteria count per bird, L. monocytogenes","[3]; Day 20, 10 ppm",2678 per bird
same,"average bacteria count per bird, L. monocytogenes","[3]; Day 20, 20 ppm",2238 per bird
same,"average bacteria count per bird, P. aeruginosa","[4]; Day 0, 10 ppm",743 per bird
same,"average bacteria count per bird, P. aeruginosa","[4]; Day 0, 20 ppm",6 per bird
same,"average bacteria count per bird, P. aeruginosa","[4]; Day 2, 10 ppm",820 per bird
same,"average bacteria count per bird, P. aeruginosa","[4]; Day 2, 20 ppm",9 per bird
same,"average bacteria count per bird, P. aeruginosa","[4]; Day 4, 10 ppm",931 per bird
same,"average bacteria count per bird, P. aeruginosa","[4]; Day 4, 20 ppm",13 per bird
same,"average bacteria count per bird, P. aeruginosa","[4]; Day 6, 10 ppm",1013 per bird
same,"average bacteria count per bird, P. aeruginosa","[4]; Day 6, 20 ppm",25 per bird
same,"average bacteria count per bird, P. aeruginosa","[4]; Day 8, 10 ppm",1268 per bird
same,"average bacteria count per bird, P. aeruginosa","[4]; Day 8, 20 ppm",48 per bird
same,"average bacteria count per bird, P. aeruginosa","[4]; Day 10, 10 ppm",1485 per bird
same,"average bacteria count per bird, P. aeruginosa","[4]; Day 10, 20 ppm",91 per bird
same,"average bacteria count per bird, P. aeruginosa","[4]; Day 12, 10 ppm",1730 per bird
same,"average bacteria count per bird, P. aeruginosa","[4]; Day 12, 20 ppm",186 per bird
same,"average bacteria count per bird, P. aeruginosa","[4]; Day 14, 10 ppm",2055 per bird
same,"average bacteria count per bird, P. aeruginosa","[4]; Day 14, 20 ppm",363 per bird
same,"average bacteria count per bird, P. aeruginosa","[4]; Day 16, 10 ppm",2560 per bird
same,"average bacteria count per bird, P. aeruginosa","[4]; Day 16, 20 ppm",700 per bird
same,"average bacteria count per bird, P. aeruginosa","[4]; Day 18, 10 ppm",3087 per bird
same,"average bacteria count per bird, P. aeruginosa","[4]; Day 18, 20 ppm",826 per bird
same,"average bacteria count per bird, P. aeruginosa","[4]; Day 20, 10 ppm",3853 per bird
same,"average bacteria count per bird, P. aeruginosa","[4]; Day 20, 20 ppm",908 per bird
same,"average bacteria count per bird, S. sonnei","[5]; Day 0, 10 ppm",845 per bird
same,"average bacteria count per bird, S. sonnei","[5]; Day 0, 20 ppm",8 per bird
same,"average bacteria count per bird, S. sonnei","[5]; Day 2, 10 ppm",962 per bird
same,"average bacteria count per bird, S. sonnei","[5]; Day 2, 20 ppm",12 per bird
same,"average bacteria count per bird, S. sonnei","[5]; Day 4, 10 ppm",1101 per bird
same,"average bacteria count per bird, S. sonnei","[5]; Day 4, 20 ppm",19 per bird
same,"average bacteria count per bird, S. sonnei","[5]; Day 6, 10 ppm",1288 per bird
same,"average bacteria count per bird, S. sonnei","[5]; Day 6, 20 ppm",37 per bird
same,"average bacteria count per bird, S. sonnei","[5]; Day 8, 10 ppm",1604 per bird
same,"average bacteria count per bird, S. sonnei","[5]; Day 8, 20 ppm",76 per bird
same,"average bacteria count per bird, S. sonnei","[5]; Day 10, 10 ppm",1954 per bird
same,"average bacteria count per bird, S. sonnei","[5]; Day 10, 20 ppm",156 per bird
same,"average bacteria count per bird, S. sonnei","[5]; Day 12, 10 ppm",2347 per bird
same,"average bacteria count per bird, S. sonnei","[5]; Day 12, 20 ppm",323 per bird
same,"average bacteria count per bird, S. sonnei","[5]; Day 14, 10 ppm",2848 per bird
same,"average bacteria count per bird, S. sonnei","[5]; Day 14, 20 ppm",657 per bird
same,"average bacteria count per bird, S. sonnei","[5]; Day 16, 10 ppm",3513 per bird
same,"average bacteria count per bird, S. sonnei","[5]; Day 16, 20 ppm",1286 per bird
same,"average bacteria count per bird, S. sonnei","[5]; Day 18, 10 ppm",4242 per bird
same,"average bacteria count per bird, S. sonnei","[5]; Day 18, 20 ppm",1604 per bird
same,"average bacteria count per bird, S. sonnei","[5]; Day 20, 10 ppm",4941 per bird
same,"average bacteria count per bird, S. sonnei","[5]; Day 20, 20 ppm",1834 per bird
